Measured values: patent US7368575B2, “6-alkylamino-2,2′-disubstituted-7,8-disubstituted-2H-1-benzopyran derivatives as 5-lipoxygenase inhibitor” (Korea Research Institute of Chemical Technology, priority 2004, dated 2008)

Legend:
5-LO (5-lipoxygenase) = target: T1, 5-LO (5-lipoxygenase) (Homo sapiens, UniProt P09917); assay: 5-LO enzyme assay using a FOX reagent; assay type: biochemical; conditions: read-out: 5-LO (% inhibition at 1 μM); test sample 1 μM; lysates from 5-LO expressing insect cells; table does not say FOX or 234 nm readout
T1 construct: made in house; host or cells: insect cells (lysate, 7 μg)
T1 sequence (P09917 1-674): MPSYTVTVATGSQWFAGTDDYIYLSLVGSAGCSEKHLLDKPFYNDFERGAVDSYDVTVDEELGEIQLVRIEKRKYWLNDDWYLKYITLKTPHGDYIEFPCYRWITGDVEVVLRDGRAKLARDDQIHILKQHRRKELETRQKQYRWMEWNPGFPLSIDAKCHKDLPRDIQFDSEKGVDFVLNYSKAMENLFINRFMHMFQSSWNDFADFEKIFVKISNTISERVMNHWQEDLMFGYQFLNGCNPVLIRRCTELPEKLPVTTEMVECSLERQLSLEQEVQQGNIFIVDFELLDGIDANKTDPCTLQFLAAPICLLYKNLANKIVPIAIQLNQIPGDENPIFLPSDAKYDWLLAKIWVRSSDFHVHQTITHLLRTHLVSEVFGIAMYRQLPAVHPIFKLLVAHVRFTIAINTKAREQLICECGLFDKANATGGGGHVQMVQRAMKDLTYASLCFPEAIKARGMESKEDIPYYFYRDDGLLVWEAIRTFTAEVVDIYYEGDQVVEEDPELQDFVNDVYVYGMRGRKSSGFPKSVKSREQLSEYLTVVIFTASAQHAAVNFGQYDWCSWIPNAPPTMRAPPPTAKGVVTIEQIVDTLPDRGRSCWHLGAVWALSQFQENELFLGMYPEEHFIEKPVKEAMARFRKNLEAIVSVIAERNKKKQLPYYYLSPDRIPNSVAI
Description: Each test sample was added to lysates (7 μg) obtained from 5-LO expressing insect cells at a final concentration of 1 μM and reacted at room temperature for 3 min. Arachidonic acid as an enzyme substrate (40 μM) was added thereto and further reacted at room temperature for 4 min. Then, a FOX reagent (sulfuric acid 25 mM, xylenol orange 100 μM, FeSO4 100 μM; methanol: water=9:1) 100 μl was added thereto, and the absorbance of the reaction mixture was measured at 575 nm after 5 min.

[1] = system: arachidonic acid-induced ear inflammation (mouse ear edema model); assay: Mouse ear edema model (arachidonic acid-induced; ear thickness and MPO activity); assay type: in vivo; conditions: ICR mouse, oral, 1 hr before arachidonic acid treatment, versus arachidonic acid-only control
Description: The inside of the right ear of ICR mouse (6 week old) was treated with 2 mg of arachidonic acid dissolved in 20 μl of acetone for 1 hr to induce an inflammation.
After 1 hr, the difference between the right ear treated with arachidonic acid and the nontreated left ear was measured with a microgauge. Further, to measure the amount of neutrophil penetrated into a tissue as a primary marker for inflammation induction, the myeloperoxidase (MPO) activity was measured. In particular, the tissue obtained from the arachidonic acid-treated right ear was homogenized in 50 mM phosphate buffer solution (pH 6.0) supplemented with 0.5% hexadecyltrimethylammonium bromide (HTAB), subjected to centrifugation, and then, the MPO activity of the supernatant was measured.
To measure in vivo activity of each test compound, each compound was dissolved in 0.5% methylcellulose (10 mL/kg) and orally administered to the mice 1 hr before the arachidonic acid treatment. After the arachidonic acid was treated for 1 hr, the ear thickness and MPO activity were measured, and in vivo activity of the test compound was estimated by comparing them with those of a control which was treated with arachidonic acid only without the test compoud.

## COc1ccc(CCC2(C)C=Cc3cc(NCc4ccccc4)ccc3O2)cc1 (stereo not shown) [1-161]
5-LO (5-lipoxygenase)
  inhibition at 1 µM: 72%

## CCCC1(C)C=Cc2cc(NCc3ccccc3)ccc2O1 (stereo not shown) [1-81]
5-LO (5-lipoxygenase)
  inhibition at 1 µM: 61%

## COc1ccc(CNc2ccc3c(c2)C=CC(C)(CCc2ccccc2)O3)cc1 (stereo not shown) [1-124]
5-LO (5-lipoxygenase)
  inhibition at 1 µM: 84%

## COc1ccc(CNc2cc3c(cc2C)OC(C)(CCc2ccccc2)C=C3)cc1 (stereo not shown) [1-324]
5-LO (5-lipoxygenase)
  inhibition at 1 µM: 51%

## CC(c1cc2ccccc2s1)N(O)C(N)=O (stereo not shown) [Zileuton, reference compound]
5-LO (5-lipoxygenase)
  inhibition at 1 µM: 85%
[1]; ear thickness
  Animal model (% inhibition) Thickness (T) %: 67%
[1]; myeloperoxidase activity of ear tissue
  Animal model (% inhibition) MPO %: 38%
